{
  "source": "paper PMC12090809",
  "about": "(Journal of Virology, 2025)",
  "key": {"[1]": {"system": "Env expressed on CH058TF-infected cells", "test": "Binding of anti-CoRBS mAb 17b to CH058TF-infected cells after incubation with plasma from BNM-III-170-treated uninfected RMs (FACS)", "format": "cell-based, HIV-1", "description": "Next, we assessed the ability of the plasma collected from uninfected RMs at various timepoints following BNM-III-170 administration to induce conformational changes in Env expressed on the surface of HIV-1-infected cells. Briefly, plasma was incubated with cells infected with the transmitted/founder virus CH058 (CH058TF) and the binding of the Alexa-Fluor-647-conjugated anti-CoRBS mAb 17b (whose epitope is not exposed on the “closed” Env conformation) to Env expressed on infected cells was measured by FACS (Fig. 1B).\nTo evaluate the functional activity of bioavailable BNM-III-170 in plasma, the plasma from uninfected RMs treated with BNM-III-170 was used to modulate Env conformation at the surface of infected cells. Briefly, 2 days post-infection, CEM.NKr cells infected with CH058TF were incubated with plasma from RMs (1:10 dilution), the Alexa-Fluor 647-conjugated 17b (5 µg/mL), and the AquaVivid viability dye at 37°C for 45 min. As a positive control, infected cells were incubated with 50 µM of BNM-III-170. Infected cells were then identified based on HIV-1 p24 detection as described above."}, "[2]": {"test": "Plasma pharmacokinetics of BNM-III-170 in SHIV AD8-EO-infected RMs (HPLC-MS/MS)", "format": "in vivo, Macaca mulatta", "description": "Plasma concentrations of BNM-III-170 in SHIV-infected animals were measured via liquid chromatography and mass spectrometry at several timepoints following each BNM-III-170 dose for all treatment cycles."}, "[3]": {"system": "CH058TF-infected CEM.NKr cells", "format": "cell-based, HIV-1", "description": "To assess the ability of bioavailable BNM-III-170 to induce conformational changes in HIV-1 Env, we assessed the capacity of the Abs naturally elicited in these infected RMs to recognize HIV-1-infected cells before and after BNM-III-170 administration. Plasma from treated animals was incubated with CH058TF-infected CEM.NKr cells, and the ability to recognize infected cells was measured by flow cytometry. […] Importantly, as observed in uninfected RMs, plasma levels of BNM-III-170 in treated, SHIV-infected RMs closely mirrored the kinetic curves for plasma binding.\n(§1) Cell surface staining was performed at 48 h post-infection. Mock-infected or HIV-1-infected CEM.NKr or primary CD4+ T cells were incubated for 45 min at 37°C with anti-Env mAbs (5 µg/mL), plasma from PWH (1:1,000 dilution), or plasma from infected RMs (1:500). When indicated, antibody/plasma incubation was done in the presence of 50 µM of BNM-III-170, or equivalent amounts of DMSO. To evaluate the capacity of plasma from SHIV-AD8-EO-infected RMs treated with BNM-III-170 to recognize HIV-1-infected cells, a 1:10 plasma dilution was used. Cells were then washed twice with PBS and stained with the appropriate Alexa Fluor 647-conjugated secondary antibody (2 µg/mL) for 20 min and the viability dye AquaVivid (Thermo Fisher Scientific) at room temperature. […]"}, "[4]": {"system": "CH058TF-infected CEM.NKr cells", "format": "cell-based, HIV-1", "conditions": "50 μM added BNM-III-170 vs absence", "description": "as §1, with “temperature. Cells were then washed twice with PBS and fixed in a 2% PBS-formaldehyde solution.” for “temperature.”\nMeasurement of ADCC using the FACS-based assay was performed at 48 h post-infection, as previously described. […] The percentage of ADCC was calculated with the following formula: (% of p24+/p27+ cells in Targets plus Effectors) − (% of p24+/p27+ cells in Targets plus Effectors plus Abs) / (% of p24+/p27+ cells in Targets) by gating on infected live target cells."}, "[5]": {"conditions": "in vivo, 12 mg/kg", "experimental": "BNM-III-170 levels in plasma from rhesus macaque were determined by high-performance liquid chromatography-tandem mass spectrometry (HPLC-MS/MS). Briefly, BNM-III-170 was extracted from plasma using protein precipitation. A Thermo Scientific TSQ Quantiva triple quadrupole mass spectrometer was interfaced with the Thermo Scientific Ultimate 3000XRS UHPLC system using a heated electrospray ion source (HESI). MS detection was performed in positive ion mode, using multiple reaction monitoring (MRM). The precursor-ion reactions for BNM-III-170 and IS were set to 447.3 → [226.1 + 357.1] and 262.0 → 139.1, respectively. Chromatographic separation was achieved on a Thermo Scientific Accucore RP-MS analytical column (100 × 2.1 mm I.D., 2.6 mm) maintained at 40°C using isocratic elution, which consisted of acetonitrile and 10 mM ammonium formate in water (pH 3.0) at a ratio of 20:80, respectively. The flow rate was fixed at 300 µL/min. Acquisition and analysis of data were conducted using the Xcalibur 4.0 software. Each calibration curve was comprised of a double blank (matrix without analyte or internal standard), zero standard, and eight calibration points. Calibration curves were computed from the equation y = ax + b, based on the weight of the calibration lines created from the peak-area ratios of the drug relative to the internal standard."}},
  "note": "Like-named read-outs stand apart in the source and are kept apart here.",
  "data": [
    {"smiles": "CNCc1ccc2c(c1)C[C@H](CN=C(N)N)[C@H]2NC(=O)C(=O)Nc1ccc(Cl)c(F)c1.O=C(O)C(F)(F)F.O=C(O)C(F)(F)F", "note": "[BNM-III-170]", "values": [
      {"measurement": "association between 17b binding and BNM-III-170 plasma concentrations", "setting": "[1]; each dose and all combined doses, Spearman correlation", "result": "positive correlation"},
      {"measurement": "effect on 17b binding to CH058TF-infected cells", "setting": "[1]; plasma from uninfected RMs, all tested doses (3–36 mg/kg SQ)", "result": "consistently shown to increase 17b binding"},
      {"measurement": "duration of residual 17b activity", "setting": "[1]; plasma from uninfected RMs, highest tested dose (36 mg/kg SQ)", "result": "up to 8 h"},
      {"measurement": "Cmax", "setting": "[2]; SHIV AD8-EO-infected RMs, following first dose of each treatment cycle (24 or 36 mg/kg SQ)", "result": "4100 to 12800", "unit": "ng/mL"},
      {"measurement": "plasma BNM-III-170 level between doses", "setting": "[2]; SHIV-infected RMs, 36 mg/kg once every 3 days", "result": "below the limit of detection"},
      {"measurement": "plasma level 6 h after each dose", "setting": "[2]; SHIV-infected RMs, all treatment cycles, generally", "result": "> 675", "unit": "ng/mL"},
      {"measurement": "association of BNM-III-170 plasma concentrations with plasma binding to infected cells", "setting": "[3]; each treatment cycle, Spearman correlation", "result": "correlated with plasma binding to infected cells"},
      {"measurement": "time post-administration up to which RM plasma efficiently recognized infected cells", "setting": "[3]; plasma from treated SHIV-infected RMs, depending on the dose used", "result": "up to 6 h"},
      {"measurement": "ADCC activity of Abs in 0 h RM plasma against infected cells", "setting": "[4]", "result": "significantly increased"},
      {"measurement": "binding of Abs in 0 h RM plasma to infected cells", "setting": "[4]", "result": "significantly increased"},
      {"measurement": "Cmax", "setting": "[5]", "result": 15300, "unit": "ng/mL"}
    ]}
  ]
}
